According to patent US11235057B2, “Methods for providing polymeric synthetic nanocarriers for generating antigen-specific tolerance immune responses” (Selecta Biosciences, Inc., priority 2011, dated 2022):

Test system: Treg cells (CD4+CD25highFoxP3+)
Assay: Antigen-specific tolerogenic dendritic cells (tDC) activity on Treg cell development
Type: cell-based, OTII mice
Conditions: FIG. 3; tDC cultured with OTII T cells 4-5 days, flow cytometry
Protocol: The assay included the use of OTII mice which have a transgenic T cell receptor specific for an immune-dominant ovalbumin peptide (323-339). In order to create antigen-specific tDCs, CD11c^+ splenocytes were isolated, and the ovalbumin peptide (323-339) added in vitro at 1 μg/ml or no antigen. Soluble or nanocarrier-encapsulated rapamycin was then added to the DCs for 2 hours which were then washed extensively to remove free rapamycin from the culture. Purified responder CD4^+CD25^− cells were isolated from OTII mice and added to tDC at a 10:1 T to DC ratio. The mixture of tDC and OTII T cells were then cultured for 4-5 days, and the frequency of Treg cells (CD4^+CD25highFoxP3^+) were analyzed by flow cytometry as shown in FIG. 1. Regions were selected based on isotype controls.
Free rapamycin or synthetic nanocarriers containing rapamycin were combined with free soluble Ovalbumin (323-339) to evaluate induction of tDC (FIG. 2). […] Briefly, antigen specific tDC were obtained by isolating dendritic cells (CD11c^+ splenocytes) and culturing them in combination with the Ovalbumin (323-339) peptide plus soluble or nanocarrier encapsulated rapamycin (Synthetic Nanocarrier #s 13, 14, 15 and 16) for 2 hours followed by extensive washing. […] The mixture of tDC and OTII T cells were then cultured for 4-5 days, and the frequency of Treg cells (CD4^+CD25highFoxP3^+) were analyzed by flow cytometry.

Q: Which “induction of FoxP3 expressing cells” value does the source give for `CO[C@H]1C[C@@H]2CC[C@@H](C)[C@@](O)(O2)C(=O)C(=O)N2CCCC[C@H]2C(=O)O[C@H]([C@H](C)C[C@@H]2CC[C@@H](O)[C@H](OC)C2)CC(=O)[C@H](C)/C=C(\C)[C@@H](O)[C@@H](OC)C(=O)[C@H](C)C[C@H](C)/C=C/C=C/C=C/1C` [rapamycin] here?
A: The value was 2.7%.
